Activity calls are given as the source filed them. The calls are words filed in the database; no cut-off is given here.
Assays:
4T1 [1] = assay: Antitumor activity against mouse 4T1 cells implanted in Balb/c mouse mouse assessed as inhibition of breast tumor metastasis at 30 mg/kg dosed daily for 2 weeks starting 7 days post tumor cell implantation and measured on day 28 by 6-thioguanine clonogenic assay; assay type: functional, organism-based
4T1 [2] = assay: Antimigratory activity against mouse 4T1 cells assessed as inhibition of cell migration incubated for 6 hrs by crystal violet staining based Boyden-Chamber cell migration assay; assay type: functional; settings: 4T1, 6 h
Fascin (Homo sapiens) = Fascin (Homo sapiens) (UniProt Q16658); assay: Inhibition of GST-tagged recombinant human fascin 1 expressed in Escherichia coli BL21/DE3 assessed as average fiber thickness at 30 uM pre-incubated for 30 mins before polymerized actin addition and followed by Alexa fluro 488 phalloidin addition and measured after 1 hr under dark condition (reference value: 0.39 a.u)
4T1 [3] = assay: Antitumor activity against mouse 4T1 cells implanted in Balb/c mouse mouse assessed as inhibition of breast tumor metastasis at 8 mg/kg dosed daily for 2 weeks starting 7 days post tumor cell implantation and measured on day 28 by 6-thioguanine clonogenic assay; assay type: functional, organism-based

| Structure (SMILES) | IC50 (4T1 [2]) | other results |
| --- | --- | --- |
| COc1ccc(S(=O)(=O)Nc2cc(Sc3nc[nH]n3)c(O)c3ccccc23)cc1 |  | inhibition (4T1 [1]): Active |
| Cc1ccc(S(=O)(=O)Nc2cc(Sc3nc[nH]n3)c(O)c3ccccc23)c(C)c1 | > 30 µM |  |
| O=[N+]([O-])c1ccc(Cl)c(S(=O)(=O)Nc2nc3ccc(Cl)cc3s2)c1 |  | Activity (Fascin (Homo sapiens)): 0.35 a.u.; inhibition (4T1 [3]): Active |

Continued, in another order:

| IC50 (4T1 [2]) | Structure (SMILES) | other results |
| --- | --- | --- |
| > 30 µM | O=C1C(Sc2nc[nH]n2)=C/C(=N/S(=O)(=O)c2ccccc2)c2ccccc21 |  |
| > 50 µM | c1ccc(Nc2nc(-c3ccccc3)[n+](-c3ccccc3)s2)cc1 |  |
| > 20 µM | CCOc1ccc(S(=O)(=O)Nc2cc(Sc3nc[nH]n3)c(O)c3ccccc23)cc1 |  |

Source: ChEMBL document CHEMBL4482306, “Methods for inhibiting fascin” (2014)
